Experimental data taken from PubChem BioAssay AID1963835 (Molecular Pharmacology Branch, DTP, NCI, 2024).

Tested on: 699152-130-R-J1-PDC complex spheroid viability
Test: Anticancer human tumor 699152-130-R-J1-PDC patient-derived pancreatic carcinoma cell line growth inhibition [POLQ]
Conditions: for IC50: curve of first compound; for viability, T/C: stronger effect = lower value
In short: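 Patient-derived tumour cells were co-cultured with HUVEC and mesenchymal stem cells as multicellular spheroids at 37 °C. They were treated with POLQ inhibitors (novobiocin, ART-558, RP6685) alone or combined with other agents. Top concentrations were at or near clinical Cmax (otherwise 10 microM; SN-38 at 1 microM), decreasing in half-log steps.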
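Further: spheroids exposed to agents for 7 days before viability reading.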
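Wherever viability, T/C is given: percent of DMSO vehicle control viability so 100% = vehicle and 0% = no viable signal.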

With `CC(=O)O[C@H]1C(=O)[C@@]2(C)[C@H]([C@H](OC(=O)c3ccccc3)[C@]3(O)C[C@H](OC(=O)[C@H](O)[C@@H](NC(=O)c4ccccc4)c4ccccc4)C(C)=C1C3(C)C)[C@]1(OC(C)=O)CO[C@@H]1C[C@@H]2O` + COC1C(OC(N)=O)C(O)C(Oc2ccc3c(O)c(NC(=O)c4ccc(O)c(CC=C(C)C)c4)c(=O)oc3c2C)OC1(C)C the IC50 (second compound 0.0316 µM) was > 3 µM, the IC50 (second compound 0.1 µM) was > 3 µM and the IC50 (second compound 0.316 µM) was > 3 µM. For the same compound, the IC50 (second compound 1 µM) was > 3 µM, the IC50 (second compound 3.16 µM) was > 3 µM and the IC50 (second compound 10 µM) was > 3 µM. The viability, T/C (second compound 0.0316 µM, first compound 0.00949 µM) was 81.5%, the viability, T/C (second compound 0.0316 µM, first compound 0.03 µM) was 57% and the viability, T/C (second compound 0.0316 µM, first compound 0.0949 µM) was 57.1%. For the same compound, the viability, T/C (second compound 0.0316 µM, first compound 0.3 µM) was 60.7%, the viability, T/C (second compound 0.0316 µM, first compound 0.949 µM) was 70.2% and the viability, T/C (second compound 0.0316 µM, first compound 3 µM) was 63%. For the same compound, the viability, T/C (second compound 0.1 µM, first compound 0.00949 µM) was 87.9%, the viability, T/C (second compound 0.1 µM, first compound 0.03 µM) was 60.2% and the viability, T/C (second compound 0.1 µM, first compound 0.0949 µM) was 47.7%. The viability, T/C (second compound 0.1 µM, first compound 0.3 µM) was 62.5%, the viability, T/C (second compound 0.1 µM, first compound 0.949 µM) was 62.4% and the viability, T/C (second compound 0.1 µM, first compound 3 µM) was 74.5%. The viability, T/C (second compound 0.316 µM, first compound 0.00949 µM) was 90%, the viability, T/C (second compound 0.316 µM, first compound 0.03 µM) was 61.4% and the viability, T/C (second compound 0.316 µM, first compound 0.0949 µM) was 46.9%. For the same compound, the viability, T/C (second compound 0.316 µM, first compound 0.3 µM) was 53.2%, the viability, T/C (second compound 0.316 µM, first compound 0.949 µM) was 57.3% and the viability, T/C (second compound 0.316 µM, first compound 3 µM) was 58.1%. The viability, T/C (second compound 1 µM, first compound 0.00949 µM) was 77.2%, the viability, T/C (second compound 1 µM, first compound 0.03 µM) was 67.8% and the viability, T/C (second compound 1 µM, first compound 0.0949 µM) was 52.8%. The viability, T/C (second compound 1 µM, first compound 0.3 µM) was 57.7%, the viability, T/C (second compound 1 µM, first compound 0.949 µM) was 66% and the viability, T/C (second compound 1 µM, first compound 3 µM) was 68.7%. The viability, T/C (second compound 3.16 µM, first compound 0.00949 µM) was 91.9%, the viability, T/C (second compound 3.16 µM, first compound 0.03 µM) was 68.9% and the viability, T/C (second compound 3.16 µM, first compound 0.0949 µM) was 62.4%. For the same compound, the viability, T/C (second compound 3.16 µM, first compound 0.3 µM) was 55.5%, the viability, T/C (second compound 3.16 µM, first compound 0.949 µM) was 59.6% and the viability, T/C (second compound 3.16 µM, first compound 3 µM) was 73.1%. For the same compound, the viability, T/C (second compound 10 µM, first compound 0.00949 µM) was 84%, the viability, T/C (second compound 10 µM, first compound 0.03 µM) was 60.6% and the viability, T/C (second compound 10 µM, first compound 0.0949 µM) was 60.6%. The viability, T/C (second compound 10 µM, first compound 0.3 µM) was 61.7%, the viability, T/C (second compound 10 µM, first compound 0.949 µM) was 73.1% and the viability, T/C (second compound 10 µM, first compound 3 µM) was 67.9%.
